Here are results for 13 compounds from ChEMBL document CHEMBL5465560, “Selectivity Literature for EUbOPEN Chemogenomic Library” (2024).

The target of experiment [1] is Mitogen-activated protein kinase 9 (Homo sapiens, UniProt P45984). As to the kind of experiment: Selectivity interaction (LanthaScreen Eu Kinase Binding Assay) EUB0001632a MAPK9. The settings on record: at 10 µM.
Experiment [2] concerns the target T1, Serine/threonine-protein kinase Chk1 (Homo sapiens) (UniProt O14757).
T1 sequence (whole entry): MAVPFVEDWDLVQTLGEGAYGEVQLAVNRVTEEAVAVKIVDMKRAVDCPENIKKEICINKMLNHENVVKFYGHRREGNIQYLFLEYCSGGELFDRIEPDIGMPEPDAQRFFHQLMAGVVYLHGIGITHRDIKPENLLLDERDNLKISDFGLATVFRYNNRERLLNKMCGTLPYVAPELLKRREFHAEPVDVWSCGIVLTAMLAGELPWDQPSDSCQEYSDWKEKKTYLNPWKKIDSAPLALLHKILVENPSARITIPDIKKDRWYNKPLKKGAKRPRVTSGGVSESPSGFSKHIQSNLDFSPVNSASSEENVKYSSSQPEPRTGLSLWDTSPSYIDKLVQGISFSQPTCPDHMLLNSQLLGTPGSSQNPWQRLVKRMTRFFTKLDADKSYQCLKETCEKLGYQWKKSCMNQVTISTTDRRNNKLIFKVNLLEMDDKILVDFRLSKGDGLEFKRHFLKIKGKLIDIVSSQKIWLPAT
As to the kind of experiment: Selectivity interaction (KinomeScan (DiscoverX)) EUB0000607a CHEK1. Conditions: at 10 µM.

Experiment [3] addresses Transient receptor potential cation channel subfamily M member 6 (Homo sapiens) (UniProt Q9BX84). As to the kind of experiment: Selectivity interaction (KinomeScan (DiscoverX)) EUB0000666a TRPM6. Conditions: at 10 µM.
For experiment [4], the target named is Insulin receptor (Homo sapiens, UniProt P06213). As to the kind of experiment: Selectivity interaction (KinomeScan (DiscoverX)) EUB0000655a INSR. Conditions: at 10 µM.
Insulin receptor, sequence (P06213 28-758 limits assumed): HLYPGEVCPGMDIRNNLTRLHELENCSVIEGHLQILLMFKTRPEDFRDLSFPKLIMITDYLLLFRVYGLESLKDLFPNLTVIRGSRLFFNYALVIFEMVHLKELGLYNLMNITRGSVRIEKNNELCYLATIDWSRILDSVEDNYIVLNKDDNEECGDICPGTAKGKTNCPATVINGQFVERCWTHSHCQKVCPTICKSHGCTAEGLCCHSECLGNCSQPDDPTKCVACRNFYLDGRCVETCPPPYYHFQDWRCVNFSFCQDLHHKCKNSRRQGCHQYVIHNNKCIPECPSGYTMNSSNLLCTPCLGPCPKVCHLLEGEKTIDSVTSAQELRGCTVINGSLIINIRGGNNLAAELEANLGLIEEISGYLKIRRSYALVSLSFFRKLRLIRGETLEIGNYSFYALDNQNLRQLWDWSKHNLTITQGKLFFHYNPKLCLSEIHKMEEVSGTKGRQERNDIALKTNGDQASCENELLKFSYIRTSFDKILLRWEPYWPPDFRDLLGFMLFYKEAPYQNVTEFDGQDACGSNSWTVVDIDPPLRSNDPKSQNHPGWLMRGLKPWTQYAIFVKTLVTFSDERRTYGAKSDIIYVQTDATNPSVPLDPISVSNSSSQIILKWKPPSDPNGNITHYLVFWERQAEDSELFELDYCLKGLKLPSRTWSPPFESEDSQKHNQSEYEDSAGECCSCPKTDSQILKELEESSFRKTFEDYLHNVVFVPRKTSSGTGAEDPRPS
Insulin receptor, sequence (P06213 763-1382 limits assumed): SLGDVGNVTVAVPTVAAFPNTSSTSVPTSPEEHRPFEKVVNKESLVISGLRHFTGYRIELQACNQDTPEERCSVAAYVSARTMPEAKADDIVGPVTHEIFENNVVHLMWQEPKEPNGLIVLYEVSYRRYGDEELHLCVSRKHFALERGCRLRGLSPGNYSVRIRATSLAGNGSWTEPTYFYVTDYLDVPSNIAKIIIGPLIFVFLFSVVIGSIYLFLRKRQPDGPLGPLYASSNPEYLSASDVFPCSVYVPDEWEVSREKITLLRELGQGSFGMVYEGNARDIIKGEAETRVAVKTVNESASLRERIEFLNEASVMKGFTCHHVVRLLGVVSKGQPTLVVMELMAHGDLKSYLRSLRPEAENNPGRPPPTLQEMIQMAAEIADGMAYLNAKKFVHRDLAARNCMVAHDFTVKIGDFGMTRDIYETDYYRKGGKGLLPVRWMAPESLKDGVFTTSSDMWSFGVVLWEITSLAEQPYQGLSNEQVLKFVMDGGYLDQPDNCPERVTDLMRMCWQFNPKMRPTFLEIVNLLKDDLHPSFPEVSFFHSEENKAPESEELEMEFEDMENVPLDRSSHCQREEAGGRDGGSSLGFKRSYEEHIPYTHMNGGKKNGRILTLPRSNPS
Experiment [5] deals with Mitogen-activated protein kinase kinase kinase 1 (Homo sapiens, UniProt Q13233). As to the kind of experiment: Selectivity interaction (KinomeScan (DiscoverX)) EUB0001079a MAP3K1. Conditions: at 1 µM.
Experiment [6] concerns the target T2, Tyrosine-protein kinase ZAP-70 (Homo sapiens) (UniProt P43403).
T2 sequence (whole entry): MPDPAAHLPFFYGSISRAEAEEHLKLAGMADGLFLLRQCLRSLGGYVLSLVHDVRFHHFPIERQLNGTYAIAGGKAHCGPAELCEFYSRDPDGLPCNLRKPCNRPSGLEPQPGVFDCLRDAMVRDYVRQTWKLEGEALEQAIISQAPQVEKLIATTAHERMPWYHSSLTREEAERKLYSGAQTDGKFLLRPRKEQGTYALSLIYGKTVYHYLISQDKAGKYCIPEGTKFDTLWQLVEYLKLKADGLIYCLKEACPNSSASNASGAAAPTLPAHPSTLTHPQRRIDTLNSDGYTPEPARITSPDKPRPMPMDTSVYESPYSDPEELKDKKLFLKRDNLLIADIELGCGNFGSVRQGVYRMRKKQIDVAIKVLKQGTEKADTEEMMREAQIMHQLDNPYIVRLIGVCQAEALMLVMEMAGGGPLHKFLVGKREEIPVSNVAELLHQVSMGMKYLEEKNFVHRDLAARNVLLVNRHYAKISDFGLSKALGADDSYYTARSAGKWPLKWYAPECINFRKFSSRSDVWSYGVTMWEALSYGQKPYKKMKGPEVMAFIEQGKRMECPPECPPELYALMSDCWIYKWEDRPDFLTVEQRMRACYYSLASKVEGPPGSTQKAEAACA
As to the kind of experiment: Selectivity interaction (KinomeScan (DiscoverX)) EUB0001079a ZAP70. The settings on record: at 1 µM.

The target in experiment [7] is STE20/SPS1-related proline-alanine-rich protein kinase (Homo sapiens) (UniProt Q9UEW8). The experiment is described as follows: Selectivity interaction (KinomeScan (DiscoverX)) EUB0001079a STK39. Conditions: at 1 µM.
In experiment [8] the target is Serine/threonine-protein kinase MRCK alpha (Homo sapiens) (UniProt Q5VT25). As to the kind of experiment: Selectivity interaction (KinomeScan (DiscoverX)) EUB0001079a CDC42BPA. The settings on record: at 1 µM.
In experiment [9] the target is Dual specificity mitogen-activated protein kinase kinase 1 (Homo sapiens, UniProt Q02750). The experiment is described as follows: Selectivity interaction (ActivX KiNativ screen (ex vivo kinase selectivity in human PBMCs)) EUB0001619a MAP2K1. The settings on record: PBMC, at 1 µM. The experiment is classed as cell-based.
Dual specificity mitogen-activated protein kinase kinase 1, sequence (Q02750 whole entry): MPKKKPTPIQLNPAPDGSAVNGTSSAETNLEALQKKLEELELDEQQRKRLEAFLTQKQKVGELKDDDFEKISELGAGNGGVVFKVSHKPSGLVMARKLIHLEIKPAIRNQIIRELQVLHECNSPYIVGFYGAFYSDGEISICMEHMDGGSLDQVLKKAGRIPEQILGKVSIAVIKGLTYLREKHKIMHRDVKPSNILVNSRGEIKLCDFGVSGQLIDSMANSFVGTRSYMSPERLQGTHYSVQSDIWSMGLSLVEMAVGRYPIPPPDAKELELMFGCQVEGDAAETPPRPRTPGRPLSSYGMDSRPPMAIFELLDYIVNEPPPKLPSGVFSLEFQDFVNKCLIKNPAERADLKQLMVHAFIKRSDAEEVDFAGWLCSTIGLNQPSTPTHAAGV
Experiment [10] has as its target RAC-beta serine/threonine-protein kinase (Homo sapiens) (UniProt P31751). The experiment is described as follows: Selectivity interaction (Kinase panel (literature)) EUB0001199aCl AKT2. The settings on record: at 1 µM.
Experiment [11] addresses 5'-AMP-activated protein kinase catalytic subunit alpha-1 (Homo sapiens, UniProt Q13131). The experiment is described as follows: Selectivity interaction (ActivX KiNativ screen (kinase selectivity in THP-1 cell lysates)) EUB0000639a PRKAA1. The experiment is classed as subcellular. Conditions: lysate, at 0.04 µM.
Experiment [12] concerns the target Serine/threonine-protein kinase 33 (Homo sapiens) (UniProt Q9BYT3). The settings on record: at 10 µM.
Experiment [13] addresses Platelet-derived growth factor receptor alpha (Homo sapiens, UniProt P16234). As to the kind of experiment: Selectivity interaction (Millipore kinase profiler) EUB0000124b PDGFRA. Conditions: at 10 µM.
In experiment [14] the target is Ribosomal protein S6 kinase alpha-1 (Homo sapiens, UniProt Q15418). As to the kind of experiment: Selectivity interaction (KinomeScan (DiscoverX)) EUB0001049a RPS6KA1. The settings on record: at 1 µM.
Ribosomal protein S6 kinase alpha-1, sequence (Q15418 whole entry): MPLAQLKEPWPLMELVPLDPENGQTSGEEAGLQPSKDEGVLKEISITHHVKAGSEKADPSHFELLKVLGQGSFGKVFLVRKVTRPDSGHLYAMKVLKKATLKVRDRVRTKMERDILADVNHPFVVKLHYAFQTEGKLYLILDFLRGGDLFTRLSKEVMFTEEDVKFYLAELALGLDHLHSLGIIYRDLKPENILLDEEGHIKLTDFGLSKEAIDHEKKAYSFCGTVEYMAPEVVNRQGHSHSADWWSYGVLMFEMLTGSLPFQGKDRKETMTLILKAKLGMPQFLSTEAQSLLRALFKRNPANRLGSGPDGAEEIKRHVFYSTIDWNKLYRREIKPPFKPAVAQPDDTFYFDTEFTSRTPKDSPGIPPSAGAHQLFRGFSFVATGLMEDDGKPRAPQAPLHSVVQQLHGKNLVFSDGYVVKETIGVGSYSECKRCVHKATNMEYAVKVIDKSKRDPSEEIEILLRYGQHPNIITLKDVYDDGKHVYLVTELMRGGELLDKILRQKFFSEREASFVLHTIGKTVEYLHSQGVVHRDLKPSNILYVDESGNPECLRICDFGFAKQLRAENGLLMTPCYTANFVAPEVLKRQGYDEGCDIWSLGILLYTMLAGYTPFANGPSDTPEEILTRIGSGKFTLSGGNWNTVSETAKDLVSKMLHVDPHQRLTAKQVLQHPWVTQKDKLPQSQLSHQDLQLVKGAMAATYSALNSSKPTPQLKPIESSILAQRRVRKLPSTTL
The target in experiment [15] is Progesterone receptor (Homo sapiens) (UniProt P06401). The experiment is described as follows: Selectivity interaction (Eurofins CEREP Diversity Profile (receptors and ion channels)) EUB0000279b PGR. Conditions: at 10 µM.
Experiment [16] deals with T3, TGF-beta receptor type-1 (Homo sapiens) (UniProt P36897).
T3 sequence (whole entry): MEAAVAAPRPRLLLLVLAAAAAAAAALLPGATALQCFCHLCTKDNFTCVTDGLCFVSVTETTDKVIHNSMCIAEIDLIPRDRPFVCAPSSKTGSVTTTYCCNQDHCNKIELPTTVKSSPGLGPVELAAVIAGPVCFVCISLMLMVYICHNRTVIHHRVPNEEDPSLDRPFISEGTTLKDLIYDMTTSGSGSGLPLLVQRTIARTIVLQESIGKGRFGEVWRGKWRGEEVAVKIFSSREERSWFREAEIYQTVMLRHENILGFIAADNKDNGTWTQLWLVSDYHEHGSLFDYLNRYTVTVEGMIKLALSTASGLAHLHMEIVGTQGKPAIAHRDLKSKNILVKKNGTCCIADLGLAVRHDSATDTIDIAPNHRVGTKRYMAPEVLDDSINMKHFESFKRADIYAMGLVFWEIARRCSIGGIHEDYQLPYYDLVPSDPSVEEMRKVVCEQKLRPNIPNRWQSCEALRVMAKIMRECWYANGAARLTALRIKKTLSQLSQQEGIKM
As to the kind of experiment: Selectivity interaction (KinomeScan (DiscoverX)) EUB0000595a TGFBR1. Conditions: at 10 µM.

The target in experiment [17] is RAC-alpha serine/threonine-protein kinase (Homo sapiens, UniProt P31749). The experiment is described as follows: Selectivity interaction (KinomeScan (DiscoverX)) EUB0000595a AKT1. Conditions: at 10 µM.

Mitogen-activated protein kinase 9, sequence (P45984 whole entry, looked up): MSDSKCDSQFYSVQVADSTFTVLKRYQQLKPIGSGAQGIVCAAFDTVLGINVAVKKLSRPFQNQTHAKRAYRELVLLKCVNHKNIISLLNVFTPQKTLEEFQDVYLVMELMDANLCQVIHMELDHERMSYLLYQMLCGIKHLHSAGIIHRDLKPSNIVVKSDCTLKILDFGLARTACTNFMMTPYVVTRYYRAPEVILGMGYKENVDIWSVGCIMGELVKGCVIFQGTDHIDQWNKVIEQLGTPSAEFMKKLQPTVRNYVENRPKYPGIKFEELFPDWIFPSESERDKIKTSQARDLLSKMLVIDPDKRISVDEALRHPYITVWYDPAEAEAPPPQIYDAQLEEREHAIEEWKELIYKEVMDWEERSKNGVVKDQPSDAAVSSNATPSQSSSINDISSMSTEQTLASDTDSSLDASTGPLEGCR
Platelet-derived growth factor receptor alpha, sequence (P16234 whole entry): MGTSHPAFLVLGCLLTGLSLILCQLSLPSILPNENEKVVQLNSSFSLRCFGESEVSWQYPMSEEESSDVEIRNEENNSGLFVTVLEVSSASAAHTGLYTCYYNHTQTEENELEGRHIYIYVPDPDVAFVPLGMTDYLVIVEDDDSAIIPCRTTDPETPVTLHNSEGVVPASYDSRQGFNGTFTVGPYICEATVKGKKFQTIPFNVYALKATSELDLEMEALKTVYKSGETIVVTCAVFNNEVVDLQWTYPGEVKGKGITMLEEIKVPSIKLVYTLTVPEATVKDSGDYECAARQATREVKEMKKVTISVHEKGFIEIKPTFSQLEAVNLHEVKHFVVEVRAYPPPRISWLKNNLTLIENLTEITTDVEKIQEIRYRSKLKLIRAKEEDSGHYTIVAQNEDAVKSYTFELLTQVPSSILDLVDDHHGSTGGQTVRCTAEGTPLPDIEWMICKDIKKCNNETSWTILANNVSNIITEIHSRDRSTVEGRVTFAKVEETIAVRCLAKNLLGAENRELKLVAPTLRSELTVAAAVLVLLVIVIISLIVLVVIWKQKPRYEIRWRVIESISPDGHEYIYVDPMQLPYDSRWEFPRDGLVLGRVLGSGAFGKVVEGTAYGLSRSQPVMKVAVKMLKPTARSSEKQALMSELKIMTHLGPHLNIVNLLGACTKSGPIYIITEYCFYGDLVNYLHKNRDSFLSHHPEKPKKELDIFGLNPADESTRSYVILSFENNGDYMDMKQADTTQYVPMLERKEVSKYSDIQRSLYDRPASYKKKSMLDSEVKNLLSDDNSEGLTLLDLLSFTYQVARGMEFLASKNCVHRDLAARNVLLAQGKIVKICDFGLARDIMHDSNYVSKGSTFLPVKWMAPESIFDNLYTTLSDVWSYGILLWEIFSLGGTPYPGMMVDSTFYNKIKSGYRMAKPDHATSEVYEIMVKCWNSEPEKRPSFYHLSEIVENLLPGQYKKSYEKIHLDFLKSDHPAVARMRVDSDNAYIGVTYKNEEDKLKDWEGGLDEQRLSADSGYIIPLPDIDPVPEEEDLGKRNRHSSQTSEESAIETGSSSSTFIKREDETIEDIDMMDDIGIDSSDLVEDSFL
RAC-beta serine/threonine-protein kinase (Homo sapiens), sequence (P31751 whole entry): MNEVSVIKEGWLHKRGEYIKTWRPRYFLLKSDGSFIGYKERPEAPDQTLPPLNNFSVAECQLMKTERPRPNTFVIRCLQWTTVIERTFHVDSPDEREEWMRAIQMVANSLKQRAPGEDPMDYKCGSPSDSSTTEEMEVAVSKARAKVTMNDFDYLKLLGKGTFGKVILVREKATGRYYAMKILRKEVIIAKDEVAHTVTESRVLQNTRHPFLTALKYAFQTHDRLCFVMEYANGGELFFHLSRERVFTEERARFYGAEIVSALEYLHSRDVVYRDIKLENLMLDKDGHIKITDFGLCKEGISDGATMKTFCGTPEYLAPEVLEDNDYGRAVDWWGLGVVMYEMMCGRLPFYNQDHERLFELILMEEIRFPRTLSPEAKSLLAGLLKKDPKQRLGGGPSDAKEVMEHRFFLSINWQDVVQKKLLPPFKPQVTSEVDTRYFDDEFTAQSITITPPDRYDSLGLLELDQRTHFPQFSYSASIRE
Serine/threonine-protein kinase 33 (Homo sapiens), sequence (Q9BYT3 whole entry, looked up): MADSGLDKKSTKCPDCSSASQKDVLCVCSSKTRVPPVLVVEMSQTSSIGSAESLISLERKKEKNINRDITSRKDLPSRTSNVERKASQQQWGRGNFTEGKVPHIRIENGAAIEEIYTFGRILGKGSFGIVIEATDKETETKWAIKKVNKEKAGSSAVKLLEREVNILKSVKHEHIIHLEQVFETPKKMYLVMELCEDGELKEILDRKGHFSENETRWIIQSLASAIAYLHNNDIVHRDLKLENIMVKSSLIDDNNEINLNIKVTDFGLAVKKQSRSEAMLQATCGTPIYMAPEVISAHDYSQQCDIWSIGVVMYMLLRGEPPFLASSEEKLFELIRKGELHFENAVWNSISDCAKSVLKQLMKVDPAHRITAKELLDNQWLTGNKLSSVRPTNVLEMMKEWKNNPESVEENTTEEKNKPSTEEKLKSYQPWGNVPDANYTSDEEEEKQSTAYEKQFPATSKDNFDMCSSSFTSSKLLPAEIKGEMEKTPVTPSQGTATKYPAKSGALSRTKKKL

With `Cn1cc(-n2cnc3c(NCc4nc5cc(Cl)c(Cl)cc5[nH]4)nc(N4CCOCC4)nc32)cn1`, the % of inhibition in experiment [1] was -21.2%.

As for `CNC(=O)Nc1ccc(-c2nc(N3CC4CCC(C3)O4)c3cnn(C4CCC5(CC4)OCCO5)c3n2)cc1`, the % of control in [2] was determined as 100%.

`O=C(NOC[C@H](O)CO)c1ccc(F)c(F)c1Nc1ccc(I)cc1F` showed a % of control in experiment [3] of 100%.

In the case of `CN(C)CCOc1ccc(-c2nc(-c3ccncc3)c(-c3ccc4c(c3)CC/C4=N\O)[nH]2)cc1`, the % of control in experiment [4] is 100%.

As to `Nc1cnc(N2CCc3cc(S(=O)(=O)Nc4c(F)cc(Cl)cc4F)cc(N4CCCC4=O)c32)nc1` [TP-020n], the % of control in experiment [5] was 100%; in [6], 85%; in [7], 100%; in experiment [8], 100%.

Turning to `N#Cc1cccc(-c2c[nH]c3ncnc(N4CCOCC4)c23)c1`, the % of inhibition in [9] was 6%.

In the case of `CN1Cc2nccc(-c3cn(C)nc3-c3ccc(F)cc3)c2C1=O`, in experiment [10], the % of inhibition turned out to be 7%.

`CC[C@@H]1[C@H](F)C(=O)N[C@@H]1COc1nccc2cc(C(N)=O)c(OC)cc12` [ZIMLOVISERTIB]: the % of inhibition in experiment [11] is 4.2%.

For the compound `CCN(CC)CCCCNc1ncc2cc(-c3cc(OC)cc(OC)c3)c(NC(=O)NC(C)(C)C)nc2n1`, the % of control in experiment [12] is 100%.

The compound `CC(=O)Nc1cccc(-n2c(=O)n(C3CC3)c(=O)c3c(Nc4ccc(I)cc4F)n(C)c(=O)c(C)c32)c1` showed a % of control in experiment [13] of 111%.

As to `COc1cc(Nc2nc(C)cc(-c3cnn4nc(OC)ccc34)n2)cc(C(F)(F)F)c1`, the % of control in experiment [14] worked out at 88%.

Turning to `CC(=O)c1cc(-c2ccccc2OCC2CC2)c2ncccn12`, the % of control in experiment [15] turned out to be 81%.

Consider `COCC(=O)NC/C=C/c1ccc2ncnc(Nc3ccc(Oc4ccc(C)nc4)c(C)c3)c2c1` [CP-724714], for which the % of control in experiment [16] and in experiment [17] was 100% in each case.
